Experimental data from patent US10220112B2, “Cyclic antimicrobial pseudopeptides and uses thereof” (INSERM (INSTITUT NATIONAL DE LA SANTE ET DE LA RECHERCHE …, priority 2014, dated 2019).
Read-outs that look alike come from different tables or passages of the source. Starred links: 1 amine or outer side, 2 acyl side, 3 side chain; linkers in the order of their positions; H or OH if unused. Non-standard residues stand in square brackets, D forms with d. Residues, ends and D or L forms follow the SMILES beside them. azaβ3(1Nal) = O=C(CN(Cc1cccc2ccccc12)N[*:1])[*:2]; X2 = O=C(CN(Cc1ccc2ccccc2c1)N[*:1])[*:2]; X1 = O=C(CN(CC(O)CO)N[*:1])[*:2]

Columns and labels:
[1] = test system: Escherichia coli strain K12 XL-Blue; conditions: for E. coli MIC: strain K12 XL-Blue; for Minimum Bactericidal Concentration (MBC), E. coli: no colonies on BHI agar after 24 h 37°C
Method: (§1) The antibacterial activity of the synthesized peptides was measured using a standard microdilution assay. Two bacterial species were tested, Staphylococcus aureus strain Newman and Escherichia coli strain K12 XL-Blue. Bacterial strains were subcultured in Mueller-Hinton broth. […] Bacteria were grown to an optical density (600 nm) of 0.5 and diluted 10^3 times in MH broth. Cell density in wells was 10^5 cfu/mL. 100 μL of this suspension was mixed with 100 μL of 2-fold serial dilutions of peptides in the well of a microtitre plate. Purified peptides were first dissolved in appropriate solvent to a final concentration of 2 mg/mL, in the microtitre plate, dilutions were made in MH broth from 1 to 0.004 mg/mL. […] Results obtained in massic concentrations were converted to molar concentrations for proper comparisons. Tests were performed in triplicate.
(§2) The results presented in Table 2 below were obtained in triplicate as described in the case of Table 1 except that the starting concentration was […] instead of 1 mg/mL.

[2] = test system: Staphylococcus aureus strain Newman; conditions: for S. aureus MIC: strain Newman; for Minimum Bactericidal Concentration (MBC), S. aureus: no colonies on BHI agar after 24 h 37°C
Method: as §1, §2

[3] = test system: human erythrocytes; assay: Lytic activity against human erythrocytes; assay type: cell-based; conditions: for Human cells H50 (peptide concentration at which half of the human erythrocytes are lysed): Table 1, 2 h 37°C, maximal concentration 1 mg/mL; for Human cells % hemolysis at 500 μM / Human cells H50: Table 2; for Human cells H50: maximal concentration 500 μM; for hemolysis at 0.2 mg/mL: 0.2 mg/mL (50 μM PepA1, 160 μM Pep11), value expected when choosing SEM concentration; for hemolysis at the MIC: human erythrocytes, at the peptide's MIC
Method: Human blood was collected from EFS (‘Etablissement Francais du Sang’) in Rennes (France). […] After centrifugation, the absorbance of the supernatant was measured at 414 nm. Three wells were positive controls, where the RBC were mixed with water 1% Triton X-100, in these wells the totality of RBC were hemolyzed and the release of hemoglobin was considered to be 100%. Three wells were negative controls, where the RBC were mixed with PBS buffer, in these wells hemolysis was considered to be null. The percentage of hemolysis in each test well was calculated by comparing with controls. For each peptide, bloods from three different donors were tested.

[4] = test system: MRSA strain S. aureus N315; conditions: Table 2
[5] = test system: VISA strain S. aureus Mu 50; conditions: Table 2
[6] = Peptides stability in human sera (RP-HPLC)
Method: Peptides stability in human sera. […] The initial time was recorded, and at known time intervals, 100 μL of reaction solution was removed and quenched by adding 200 μL of 95% EtOH and adjusted at pH=2 to eliminate the effect of peptides adsorption to the protein of the human serum. The cloudy reaction sample was cooled (4° C.) for 15 minutes and then spun at 14 000 rpm (Eppendorf centrifuge) for 4 minutes to pellet the precipitated serum proteins.
The different peptides were incubated with human serum up to 10 hours, and their stability was analyzed and their half-lives determined by RP-HPLC (FIG. 1).

[7] = Table 1, 20 h 37°C, maximal concentration 1 mg/mL
[8] = Table 2, starting concentration 500 μM

H-FFWLSRRTK-NH2 [Pep4]
E. coli MIC [1, 7]: 100 µM
S. aureus MIC [2, 7]: 200 µM
Human cells H50 (peptide concentration at which half of the human erythrocytes are lysed) [3]: nd (not detectable at the maximal concentration tested (1 mg/mL, 300 to 900 μM))

CC(C)[C@@H]1NC(=O)[C@H](CCCNC(=N)N)NC(=O)[C@H](CCCNC(=N)N)NC(=O)CN(Cc2cccc3ccccc23)NC(=O)[C@H](Cc2ccccc2)NC(=O)CN(Cc2cccc3ccccc23)NC(=O)[C@H](CCCCN)NC1=O [Pep19, (Ψ1Nal-F-Ψ1Nal-RRVK)] (cyclo([azaβ3(1Nal)]F[azaβ3(1Nal)]RRVK))
E. coli MIC [1, 8]: 4 µM
S. aureus MIC [2, 8]: 4 µM
Human cells % hemolysis at 500 μM [3]: 7%
Human cells H50 [3]: nd (not detectable at the maximal concentration tested (500 μM))
MRSA MIC [4]: 4 µM
VISA MIC [5]: 4 µM

N=C(N)NCCC[C@@H]1NC(=O)[C@H](Cc2c[nH]c3ccccc23)NC(=O)[C@H](Cc2ccccc2)NC(=O)[C@H](Cc2ccccc2)NC(=O)[C@H](CCCCN)NC(=O)CN(CC(O)CO)NC(=O)[C@H](CCCNC(=N)N)NC1=O (stereo partly shown) [Pep11, (FFWRRΨHytK)] (cyclo(FFWRR[X1]K))
E. coli MIC [1, 7]: 3 µM
Minimum Bactericidal Concentration (MBC), E. coli [1]: 8 µM
S. aureus MIC [2, 7]: 7 µM
fold higher antibacterial activity compared to Pep10 ([2]; against the two model bacteria): four-fold
Minimum Bactericidal Concentration (MBC), S. aureus [2]: 16 µM
fold less haemolytic on human erythrocytes than PepA1 [3]: about 12 fold
fold less hemolytic compared to Pep10 [3]: six-fold
hemolysis at 0.2 mg/mL [3]: 10%
Human cells H50 (peptide concentration at which half of the human erythrocytes are lysed) [3]: 840 µM
hemolysis at the MIC [3]: no hemolysis
higher stability in human serum than the PepA1 parental peptide [6]: ~240 fold

H-FFSYWLSRRTK-NH2 [Pep2]
E. coli MIC [1, 7]: 80 µM
S. aureus MIC [2, 7]: 170 µM
Human cells H50 (peptide concentration at which half of the human erythrocytes are lysed) [3]: nd (not detectable at the maximal concentration tested (1 mg/mL, 300 to 900 μM))

CC(C)C[C@H](NC(=O)[C@H](Cc1c[nH]c2ccccc12)NC(=O)[C@H](Cc1ccccc1)NC(=O)[C@@H](N)Cc1ccccc1)C(=O)N[C@@H](CCCNC(=N)N)C(=O)N[C@@H](CCCNC(=N)N)C(=O)NN(CC(=O)N[C@@H](CCCCN)C(N)=O)CC(O)CO (stereo partly shown) [Pep9, H-FFWLRRΨHytK-NH2] (H-FFWLRR[X1]K-NH2)
E. coli MIC [1, 7]: 100 µM
MIC, fold lower compared to Pep4, S. aureus [2]: two-fold
S. aureus MIC [2, 7]: 100 µM
lysis of human erythrocytes (in words) [3]: did not trigger detectable lysis
Human cells H50 (peptide concentration at which half of the human erythrocytes are lysed) [3]: nd (not detectable at the maximal concentration tested (1 mg/mL, 300 to 900 μM))

N=C(N)NCCC[C@@H]1NC(=O)CN(Cc2ccc3ccccc3c2)NC(=O)[C@H](Cc2ccccc2)NC(=O)[C@H](Cc2ccccc2)NC(=O)[C@H](CCCCN)NC(=O)CN(CC(O)CO)NC(=O)[C@H](CCCNC(=N)N)NC1=O (stereo partly shown) [Pep15, (FFΨ2-Nal-RR-ΨHyt-K)] (cyclo(FF[X2]RR[X1]K))
E. coli MIC [1, 8]: 2 µM
S. aureus MIC [2, 8]: 2 µM
Human cells % hemolysis at 500 μM [3]: 3%
Human cells H50 [3]: nd (not detectable at the maximal concentration tested (500 μM))
MRSA MIC [4]: 2 µM
VISA MIC [5]: 2 µM

N=C(N)NCCC[C@@H]1NC(=O)[C@H](Cc2c[nH]c3ccccc23)NC(=O)[C@H](Cc2ccccc2)NC(=O)CN(Cc2cccc3ccccc23)NC(=O)[C@H](CCCCN)NC(=O)CN(CC(O)CO)NC(=O)[C@H](CCCNC(=N)N)NC1=O (stereo partly shown) [Pep12, (Ψ1Nal-FWRR-ΨHyt-K)] (cyclo([azaβ3(1Nal)]FWRR[X1]K))
E. coli MIC [1, 8]: 16 µM
S. aureus MIC [2, 8]: 16 µM
Human cells % hemolysis at 500 μM [3]: 98%
Human cells H50 [3]: 220 µM

H-FFSWLSRRTK-NH2 [Pep3]
E. coli MIC [1, 7]: 95 µM
S. aureus MIC [2, 7]: 190 µM
Human cells H50 (peptide concentration at which half of the human erythrocytes are lysed) [3]: nd (not detectable at the maximal concentration tested (1 mg/mL, 300 to 900 μM))

CC(C)C[C@@H]1NC(=O)[C@H](Cc2c[nH]c3ccccc23)NC(=O)[C@H](Cc2ccccc2)NC(=O)[C@H](Cc2ccccc2)NC(=O)[C@H](CCCCN)NC(=O)[C@H]([C@@H](C)O)NC(=O)[C@H](CCCNC(=N)N)NC(=O)[C@H](CCCNC(=N)N)NC(=O)[C@H](CO)NC1=O [Pep6] (cyclo(FFWLSRRTK))
MIC, fold reduced compared to Pep5, E. coli [1]: ten-fold
MIC, fold reduced compared to Pep5, S. aureus [2]: ten-fold
fold higher activity than linear Pep4 ([2]; species not specified): 4 fold
lysis of human erythrocytes (in words) [3]: substantial hemolysis
Human cells H50 (peptide concentration at which half of the human erythrocytes are lysed) [3]: 5 µM
stabilizing effect in human serum compared with linear Pep4 [6]: ~320 fold

H-MLIFVHIIAPVISGCAIAFFSYWLSRRNTK-NH2 [PepA1, reference compound]
E. coli MIC [1, 7]: 8 µM
Minimum Bactericidal Concentration (MBC), E. coli [1]: 16 µM
S. aureus MIC [2, 7]: 8 µM
Minimum Bactericidal Concentration (MBC), S. aureus [2]: 16 µM
hemolysis at 0.2 mg/mL [3]: 50%
Human cells H50 (peptide concentration at which half of the human erythrocytes are lysed) [3]: 70 µM
hemolysis at the MIC [3]: 20%

CC(C)N1CC(=O)N[C@@H](CCCCN)C(=O)NN(Cc2ccc3ccccc3c2)CC(=O)N[C@@H](Cc2ccccc2)C(=O)NN(Cc2ccc3ccccc3c2)CC(=O)N[C@@H](CCCNC(=N)N)C(=O)N[C@@H](CCCNC(=N)N)C(=O)N1 [Pep16, (Ψ2Nal-F-Ψ2Nal-RR-ΨV-K)]
Human cells H50 [3]: nd (not detectable at the maximal concentration tested (500 μM))

C[C@@H](O)[C@@H]1NC(=O)[C@H](CCCNC(=N)N)NC(=O)[C@H](CCCNC(=N)N)NC(=O)[C@H](Cc2c[nH]c3ccccc23)NC(=O)[C@H](Cc2ccccc2)NC(=O)[C@H](Cc2ccccc2)NC(=O)[C@H](CCCCN)NC1=O [Pep8, (FFWRRTK)] (cyclo(FFWRRTK))
fold more antibacterial than Pep7 ([2]; species not specified): ~3 fold
fold less hemolytic than Pep7 [3]: 10 fold
Human cells H50 (peptide concentration at which half of the human erythrocytes are lysed) [3]: 160 µM

CC(C)N(CC(=O)N[C@@H](CCCCN)C(N)=O)NC(=O)[C@H](CCCNC(=N)N)NC(=O)[C@H](CCCNC(=N)N)NC(=O)CN(Cc1ccc2ccccc2c1)NC(=O)[C@H](Cc1ccccc1)NC(=O)CN(N)Cc1ccc2ccccc2c1 [Pep21, H-Ψ2Nal-F-Ψ2Nal-RR-ΨV-K-NH2]
Human cells H50 [3]: nd (not detectable at the maximal concentration tested (500 μM))

C[C@@H](O)[C@@H]1NC(=O)[C@H](CCCNC(=N)N)NC(=O)[C@H](CCCNC(=N)N)NC(=O)[C@H](CO)NC(=O)[C@H](Cc2c[nH]c3ccccc23)NC(=O)[C@H](Cc2ccccc2)NC(=O)[C@H](Cc2ccccc2)NC(=O)[C@H](CCCCN)NC1=O [Pep7] (cyclo(FFWSRRTK))
E. coli MIC [1, 7]: 13 µM
S. aureus MIC [2, 7]: 30 µM
antibacterial activity, fold increase compared to Pep6 ([2]; species not specified): two-fold
Human cells H50 (peptide concentration at which half of the human erythrocytes are lysed) [3]: 14 µM

H-FFWLSRTK-NH2 [Pep5]
MIC, fold higher than Pep4, E. coli [1]: two-fold
MIC, fold higher than Pep4, S. aureus [2]: two-fold
Human cells H50 (peptide concentration at which half of the human erythrocytes are lysed) [3]: nd (not detectable at the maximal concentration tested (1 mg/mL, 300 to 900 μM))

CC(C)[C@@H]1NC(=O)[C@H](CCCNC(=N)N)NC(=O)[C@H](CCCNC(=N)N)NC(=O)[C@H](Cc2c[nH]c3ccccc23)NC(=O)[C@H](Cc2ccccc2)NC(=O)[C@H](Cc2ccccc2)NC(=O)[C@H](CCCCN)NC1=O [Pep18, (FFWRRVK)] (cyclo(FFWRRVK))
E. coli MIC [1, 8]: 4 µM
S. aureus MIC [2, 8]: 4 µM
MRSA MIC [4]: 8 µM
VISA MIC [5]: 8 µM

CC(C)C[C@@H]1NC(=O)[C@H](Cc2c[nH]c3ccccc23)NC(=O)[C@H](Cc2ccccc2)NC(=O)[C@H](Cc2ccccc2)NC(=O)[C@H](CCCCN)NC(=O)CN(CC(O)CO)NC(=O)[C@H](CCCNC(=N)N)NC(=O)[C@H](CCCNC(=N)N)NC1=O (stereo partly shown) [Pep10, (FFWLRRΨHytK)] (cyclo(FFWLRR[X1]K))
MIC, fold lower compared to Pep9, E. coli [1]: seven-fold
E. coli MIC [1, 7]: 13 µM
MIC, fold lower compared to Pep9, S. aureus [2]: four
S. aureus MIC [2, 7]: 25 µM
lysis of human erythrocytes (in words) [3]: slightly hemolytic
Human cells H50 (peptide concentration at which half of the human erythrocytes are lysed) [3]: 150 µM
